Assay results from publication PMC11645656, “MRGPRX4 mediates phospho-drug associated pruritus in a humanized mouse model” (Science translational medicine, 2024).
“And” between values parts separate entries of the source, which are not always exact repeats. Identical values can stand only once. Like-named read-outs stand apart in the source and are kept apart here.

Columns and labels:
[1] = biological target: T1, MRGPRX4 Y254A (Homo sapiens, UniProt Q96LA9, L83S/Y254A); assay: Calcium mobilization assay (FLIPR), MRGPRX4 Y254A mutant; type: cell-based; settings: for Calcium mobilization response, dose-response replicate data (Fig. 3E and 3F): Y254A
T1 construct: expressed in transfected cells; host or cells: HEK293T, transient
T1 sequence (Q96LA9 whole entry L83S/Y254A): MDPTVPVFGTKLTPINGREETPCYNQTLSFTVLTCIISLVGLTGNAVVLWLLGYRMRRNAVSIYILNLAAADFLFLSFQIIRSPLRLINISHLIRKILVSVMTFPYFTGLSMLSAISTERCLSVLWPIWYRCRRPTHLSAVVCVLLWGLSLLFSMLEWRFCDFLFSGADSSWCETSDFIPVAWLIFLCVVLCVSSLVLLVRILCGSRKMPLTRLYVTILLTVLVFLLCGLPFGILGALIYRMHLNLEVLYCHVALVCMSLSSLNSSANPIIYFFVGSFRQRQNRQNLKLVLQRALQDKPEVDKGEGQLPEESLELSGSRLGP
Source text: (§1) Fig. 3. […] (A) Cryo-EM density map of MRGPRX4-Gq in complex with fospropofol. (B) The density map of fospropofol and R82 of MRGPRX4. (C and D) Key molecular interactions between fospropofol and the hydrophilic (C) and hydrophobic (D) part of the agonist binding pocket of MRGPRX4. Amino acid residues interacting with fospropofol are shown as sticks. Hydrogen bond is shown as cyan dashed lines. […] Data are from at least three independent experiments, each performed in triplicate, and reported as the mean ± SEM. (E) and (F) were collected from the same sets of experiments.
(§2) To generate murine Mrgprs expressing cells, HEK293T cells (ATCC) were seeded on poly-D-lysine coated 96 well plate at 25,000 cells per well one day prior to transfection. HEK293T cells were transiently co-transfected with the mammalian expression plasmids carrying cDNA encoding the murine Mrgpr genes and plasmid inserted with cDNA encoding murine α-subunit of the heterotrimeric G15 protein (Gα15) in triplicates using Lipofectamine LTX reagents (Thermo Scientific). To generate WT, S83L, and alanine mutant MRGPRX4-expressing cells, HEK293T cells were seeded on poly-D-lysine coated 384 well plate at 12,000 cells per well one day prior to transfection. Mammalian expression plasmids pLX304 (vector from Addgene) carrying different MRGPRX4 coding sequences were transiently transfected into HEK293T cells in triplicates with Lipofectamine LTX reagents (Thermo Scientific). Intracellular calcium mobilization assays were performed after one day of transfection. Murine Mrgprs tested include Mrgpra1, Mrgpra2a, Mrgpra2b, Mrgpra3, Mrgpra4, Mrgpra6, Mrgpra9, Mrgpra10, Mrgpra11, Mrgpra12, Mrgpra14, Mrgprb5, Mrgprb6, Mrgprb10, Mrgprb11, and Mrgprc11. WT and mutant MRGPRX4 constructs tested include WT, S83L, R82A, R86A, R95A, W158A, Y250A, and Y254A.
(§3) To generate MRGPRX4 mutant constructs, site-directed mutagenesis was performed using Q5® Site-Directed Mutagenesis Kit (New England Biolabs). The primers were designed by the NEBaseChanger tool, with forward primers spanning designated mutated sequence corresponding to the desired amino acid substitutions. The plasmids with WT MRGPRX4 sequence served as the templates for polymerase chain reaction (PCR) amplification with Q5 high-fidelity polymerase and respective primer pairs according to the manufacturer’s conditions. Then, the linear PCR products underwent phosphorylation, ligation, and simultaneous degradation of template DNA by incubating them with a KLD enzyme mix consisting of T4 polynucleotide kinase, T4 DNA ligase, and DpnI at room temperature for 5 min. Subsequently, the mutated circular plasmids were transformed into NEB 5-alpha competent E. coli by heat-shock method, and the successfully transformed bacteria were selected on LB plates with selection antibiotics. The next day, the transformant colonies were picked, expanded in LB broth containing selection antibiotics overnight. Plasmids were isolated using QIAprep Spin Miniprep Kit (Qiagen) and subjected to sequencing to confirm the mutation.

[2] = biological target: MRGPRX4 WT (S83) (Homo sapiens, UniProt Q96LA9, L83S); assay: Calcium mobilization assay (FLIPR), WT (S83) MRGPRX4 transiently expressed in HEK293T cells; type: cell-based; parameters: expressed in transfected cells; host or cells: HEK293T, transient; settings: for EC50: WT (S83), Fig. 4E, unit not in the head, taken from Concentration (M) of the sheet and pEC50 [M] of Fig. 4E; for Calcium mobilization response (Fig. 4D dose-response) / calcium mobilization response (Fig. 3E and 3F dose-response): WT; for Calcium mobilization response (Fig. 4D dose-response): each cell one replicate; for Potency at S83- vs L83-MRGPRX4: calcium mobilization, compared with S83L (A17)
Sequence of MRGPRX4 WT (S83) (Q96LA9 whole entry L83S): as the sequence (Q96LA9 whole entry L83S/Y254A) above, with A254Y counted along it
Source text: (§4) Fig. 4. […] Hydrogen bond is shown as cyan dashed lines. […] Data are from three independent experiments, performed in triplicate. (E) pEC50 plots of various agonists toward S83- and L83-MRGPRX4 through calcium mobilization assay. […] Each data point represents an independent experiment, performed in triplicate. The extra sum-of-square F test was used to examine the difference in EC50 values. One-sided t-test was used for nateglinide. *p< 0.05, **p< 0.01 and ***p< 0.001. ns = no statistical significance. Both (D) and (E) are reported as the mean ± SEM. N.D.= no detectable response ≤ 100 μM.
(§5) HEK293 cells and MRGPRX4 stably expressed HEK293 cells were seeded in 100 μl culture media on 96-well plates at a density of 40,000 cells per well and incubated overnight. The next day, the media were replaced with a dye-loading solution from the FLIPR Calcium 5 assay kit (Molecular Devices), diluted in Hank's Balanced Salt Solution (HBSS) with 20 mM HEPES, pH 7.4. After 1 h of incubation at 37°C, cells were allowed to recover for 10 min in the dark at room temperature prior to performing intracellular calcium mobilization assay in a Flexstation-3 instrument with SoftMax®Pro 7.1 software (Molecular Devices). Serial concentrations of tested drugs were prepared in HBSS/HEPES solution at 3X concentration. […] Compounds were tested in triplicates and the signals were averaged. Responses were determined by subtracting the minimum signal (at the baseline before adding the drug) from the maximum signal (obtained after drug stimulation). Four-parameter logistic (4PL) curve fit was used to plot the dose-response curves. […] Both dose-response curve fitting and EC50s calculation are computed with GraphPad Prism software (version: 6.o or above).
as §2

[3] = cited from earlier work
[4] = biological target: T2, MRGPRX4 W158A (Homo sapiens, UniProt Q96LA9, L83S/W158A); assay: Calcium mobilization assay (FLIPR), MRGPRX4 W158A mutant; type: cell-based; settings: for calcium mobilization response (Fig. 3E and 3F dose-response): W158A
T2 construct: expressed in transfected cells; host or cells: HEK293T, transient
T2 sequence (Q96LA9 whole entry L83S/W158A): as the sequence (Q96LA9 whole entry L83S/Y254A) above, with W158A, A254Y counted along it
Source text: as §1, §2, §3

[5] = biological target: MRGPRX4 S83L (L83) (Homo sapiens, UniProt Q96LA9); assay: Calcium mobilization assay (FLIPR), S83L MRGPRX4 transiently expressed in HEK293T cells; type: cell-based; parameters: expressed in transfected cells; host or cells: HEK293T, transient; settings: for Calcium mobilization response (Fig. 4D dose-response): each cell one replicate; for EC50: Fig. 4E, unit not in the head, taken from Concentration (M) of the sheet and pEC50 [M] of Fig. 4E
Sequence of MRGPRX4 S83L (L83) (Q96LA9 whole entry, stated change not applied): as the sequence (Q96LA9 whole entry L83S/Y254A) above, with S83L, A254Y counted along it
Source text: as §4, §5, §2

[6] = biological target: T3, MRGPRX4 R82A (Homo sapiens, UniProt Q96LA9, L83S/R82A); assay: Calcium mobilization assay (FLIPR), MRGPRX4 R82A mutant; type: cell-based
T3 construct: expressed in transfected cells; host or cells: HEK293T, transient
T3 sequence (Q96LA9 whole entry R82A/L83S): as the sequence (Q96LA9 whole entry L83S/Y254A) above, with R82A, A254Y counted along it
Source text: as §1
To generate murine Mrgprs expressing cells, HEK293T cells (ATCC) were seeded on poly-D-lysine coated 96 well plate at 25,000 cells per well one day prior to transfection. HEK293T cells were transiently co-transfected with the mammalian expression plasmids carrying cDNA encoding the murine Mrgpr genes and plasmid inserted with cDNA encoding murine α-subunit of the heterotrimeric G15 protein (Gα15) in triplicates using Lipofectamine LTX reagents (Thermo Scientific). To generate WT, S83L, and alanine mutant MRGPRX4-expressing cells, HEK293T cells were seeded on poly-D-lysine coated 384 well plate at 12,000 cells per well one day prior to transfection. […]

[7] = read-out: EC50s (each well represents individual experiment)
[8] = EC50s (each well represents individual experiment)

## O=C1NC(c2ccccc2)(c2ccccc2)C(=O)N1COP(=O)(O)O [Fosphenytoin]
[1]
  Calcium mobilization response at alanine mutant Y254A vs WT: disrupted calcium mobilization
[1]; concentration 188 pM
  Calcium mobilization response, dose-response replicate data (Fig. 3E and 3F): 6.602 and -1.3205 and -9.574 and 20.2858 and 13.0936 and 9.774 and -0.7431 and 13.747
[1]; concentration 565 pM
  Calcium mobilization response, dose-response replicate data (Fig. 3E and 3F): 20.4677 and 20.7978 and 5.942 and 10.3273 and 0.3688 and 21.3924 and 9.2885 and 13.5241
[1]; concentration 1.69e-9 M
  Calcium mobilization response, dose-response replicate data (Fig. 3E and 3F): 15.8459 and 12.5447 and -5.6121 and 28.0313 and 20.8391 and 13.6468 and 20.2118 and 18.4284
[1]; concentration 5.08e-9 M
  Calcium mobilization response, dose-response replicate data (Fig. 3E and 3F): 23.7689 and 10.8941 and -0.3301 and 18.6261 and 10.3273 and 20.8391 and 13.5241 and 11.5177
[1]; concentration 1.52e-8 M
  Calcium mobilization response, dose-response replicate data (Fig. 3E and 3F): 15.8459 and 17.8267 and 10.564 and 26.3716 and 23.6054 and 16.9663 and 20.8805 and 19.7659
[1]; concentration 4.57e-8 M
  Calcium mobilization response, dose-response replicate data (Fig. 3E and 3F): 19.1472 and 14.8556 and 8.913 and 19.1793 and 12.5403 and 20.2858 and 17.7596
[1]; concentration 1.37e-7 M
  Calcium mobilization response, dose-response replicate data (Fig. 3E and 3F): 18.8171 and 31.3618 and 9.243 and 27.4781 and 26.9248 and 21.3924 and 19.3201
[1]; concentration 4.12e-7 M
  Calcium mobilization response, dose-response replicate data (Fig. 3E and 3F): 18.4869 and 19.4773 and 3.301 and 26.9248 and 12.5403 and 32.4573 and 12.4094
[1]; concentration 1.23e-6 M
  Calcium mobilization response, dose-response replicate data (Fig. 3E and 3F): 21.1279 and 18.1568 and 6.272 and 32.4573 and 21.9456 and 23.0521 and 14.8616 and 16.645
[1]; concentration 3.7e-6 M
  Calcium mobilization response, dose-response replicate data (Fig. 3E and 3F): 15.5158 and 10.2338 and 7.923 and 31.3509 and 13.0936 and 21.9456 and 13.9699 and 13.3011
[1]; concentration 1.11e-5 M
  Calcium mobilization response, dose-response replicate data (Fig. 3E and 3F): 7.923 and -1.651 and 1.651 and 24.1586 and 18.0728 and 21.9456 and 2.8237 and 17.9825
[1]; concentration 3.33e-5 M
  Calcium mobilization response, dose-response replicate data (Fig. 3E and 3F): 5.942 and 0.9904 and -9.904 and 16.4131 and 10.3273 and 31.3509 and 7.059 and 4.161
[1]; concentration 0.0001 M
  Calcium mobilization response, dose-response replicate data (Fig. 3E and 3F): 1.651 and -5.282 and 12.5403 and 18.0728 and 14.2001 and 2.601 and 7.951
[2]; [7]
  EC50: 7.21e-07 M and 5.46e-06 M and 1.46e-06 M
[2]; 5.65e-9 M
  Calcium mobilization response (Fig. 4D dose-response): -11.5543
[2]; 4.12e-6 M
  calcium mobilization response (Fig. 3E and 3F dose-response): 76.9188
  Calcium mobilization response (Fig. 4D dose-response): 76.9188
[2]; 1.23e-5 M
  calcium mobilization response (Fig. 3E and 3F dose-response): 82.4819
[2]
  Potency at S83- vs L83-MRGPRX4: improved potency at S83-MRGPRX4
[3]; vs phenytoin
  Solubility relative to parent drug: 4500 fold
[4]
  Calcium mobilization response at alanine mutant W158A vs WT: disrupted calcium mobilization
[4]; 0.000333 M
  calcium mobilization response (Fig. 3E and 3F dose-response): -15.9549
[4]; 0.001 M
  calcium mobilization response (Fig. 3E and 3F dose-response): -17.9356
[4]; […]
  calcium mobilization response (Fig. 3E and 3F dose-response): -11.6633
[5]; 5.08e-8 M
  Calcium mobilization response (Fig. 4D dose-response): 12.9092
[5]; 1.52e-7 M
  Calcium mobilization response (Fig. 4D dose-response): 15.1222
[5]; 4.57e-7 M
  Calcium mobilization response (Fig. 4D dose-response): 12.9092
[5]; [7]
  EC50: 1.09e-05 M and 5.99e-05 M and 1.97e-05 M
[6]
  Calcium mobilization response at alanine mutant R82A vs WT: either greatly attenuated or abolished

## CC(C)c1cccc(C(C)C)c1OCOP(=O)(O)O [Fospropofol]
[1]
  Calcium mobilization response at alanine mutant Y254A vs WT: disrupted calcium mobilization
[2]; [8]
  EC50: 2.8e-08 M and 4.03e-08 M and 1.9e-08 M
[2]; 4.57e-8 M
  calcium mobilization response (Fig. 3E and 3F dose-response): 59.0909
[2]; 4.12e-7 M
  calcium mobilization response (Fig. 3E and 3F dose-response): 88.6023
  Calcium mobilization response (Fig. 4D dose-response): 88.6023
[2]
  Potency at S83- vs L83-MRGPRX4: improved potency at S83-MRGPRX4
[3]; vs propofol
  Solubility relative to parent drug: 3000 fold
[4]
  Calcium mobilization response at alanine mutant W158A vs WT: disrupted calcium mobilization
[5]; 1.52e-8 M
  Calcium mobilization response (Fig. 4D dose-response): 30.9484
[5]; 0.0001 M
  Calcium mobilization response (Fig. 4D dose-response): 92.0965
[5]; [8]
  EC50: 1.79e-07 M and 1.3e-07 M and 1.88e-07 M
[6]
  Calcium mobilization response at alanine mutant R82A vs WT: either greatly attenuated or abolished
